These results are taken from publication PMC3790851, “Improved Mass Spectrometry Assay For Plasma Hepcidin: Detection and Characterization of a Novel Hepcidin Isoform” (PLoS ONE, 2013).

A value given as a limit tells only on which side of the number the result lay.

A short description of data set [1]: Effect of solvent of hepcidin-25^+40 on loss of peptide and hepcidin-25 value assignment. It counts as physicochemical. The method, then:
Heavy hepcidin-25^+40 (hepcidin-25^+40 Da; DTHF(^13C9,^15N)P(^13C5,^15N)I(^13C6,^15N)CI(^13C6,^15N) F(^13C9,^15N)CCG(^15N)CCHRSKCGMCCKT disulfide bridged) was obtained from Peptides International (Table 1). Note that due to an isotope content of 98% the actual mass is 1 Da less than the theoretical mass of this peptide. Freeze dried hepcidin-25^+40 was dissolved in H2O in accordance with the manual. An 0.1 nmol/L solution of hepcidin-25^+40 was aliquoted in 12 µL volumes in 200 µL polypropylene tubes and stored at −80°C until use.
As quantification of native hepcidin in a sample is related to the known concentration of the spiked internal standard, the absolute levels of measured hepcidin are highly dependent on the value assignment of the used internal standard. One determining factor concerns proper dissolvent of the lyophilized peptide and whether or not a substantial amount of the internal standard is lost by aggregation or sticking to laboratory plastics during its preparation. Therefore, we compared the effects of three different solvents to prepare hepcidin-25^+40 stock solutions on the measured hepcidin-25 concentration of a series of spiked blank serum samples to which known hepcidin-25 concentrations were added. […] This finding implicates that use of 5% phosphoric acid leads to loss of about 50% of the peptide, while this seems to be the case for about 15% of the peptide when water is used. […] Therefore, 20% acetonitrile was implemented as solvent for the internal standard in our standard operating procedure, which was used throughout the remainder of this study.
Figure 1 Effect on the solvent of hepcidin-25^+40 on hepcidin-25 linearity and value assignment. […] Linearity of measured hepcidin-25 was determined by the formulas: Y = 1.822X+0.097 (5% phosphoric acid); Y = 1.119X+0.494 (water); Y = 0.964X+0.069 (20% acn).

The conditions of data set [2]: at least; cited from earlier work. The method, then: We conclude that hepcidin-25 results are not changed during 2 years of storage at −80°C, except for a possible small decrease upon freezing. However, after 2 years storage at −80°C, hepcidin results become less precise and individual measurements might become less reliable. Average results for a population may not be affected, but existing differences in hepcidin levels between groups, or correlations of hepcidin with other parameters might be more difficult to assess.

The conditions of data set [3]: serum, healthy controls; cited from earlier work. From the text: We observed no differences between the various anticoagulants used. We observed, however, a small non significant decrease of hepcidin-25 upon freezing (e.g. for heparin samples at 7 days: total intensive care and control (n = 15): 95% (CV 8%) relative to fresh samples, Table S3). […] However, it should be noted that the reproducibility of the measurements of the smaller isoforms at low concentrations is low, especially the measurements of hepcidin-20 in EDTA plasma samples (Table 2, Table S3). Thus, hepcidin measurements by WCX-TOF MS are no ...

Details of data set [4]: method as in PMID 22222553. The following applies: serum, 12 healthy controls; cited from earlier work.

With “DTHF(^13C9,^15N)P(^13C5,^15N)I(^13C6,^15N)CI(^13C6,^15N) F(^13C9,^15N)CCG(^15N)CCHRSKCGMCCKT disulfide bridged (disulfide) [Hepcidin-25^+40, novel custom made heavy hepcidin-25 isotope, disulfide bridged, internal standard]”, in data set [1] (inferred from false high measured hepcidin-25 in spiked blank serum), the “loss of peptide on dissolution in 5% phosphoric acid” value is given as “about 50%”. In addition, the “loss of peptide on dissolution in water” value in data set [1] (inferred from measured hepcidin-25 in spiked blank serum) was “about 15%”. Besides, the “measured to nominal hepcidin-25 ratio, internal standard in 20% acetonitril” value in data set [1] (spiked blank serum) was “near 1∶1 ratio”.

With “hepcidin: hepcidin as measured in plasma or serum, isoform not specified at the place”, in data set [2], the “stability at -80°C” value is 6–8 months. Also, the “stability at -20°C” value in data set [3] is given as no less than 42 days. For the same substance, the “stability at 4°C” value in data set [4] is 6 days.
